Experimental data as given in patent US20060014699A1, “Aqueous pharmaceutical formulaton comprising the thrombin inhibitor melagatran and use of the formulation in the manufacture of a medicament for use by nasal administration in treating thromboembolism” (AstraZeneca AB, priority 2002, published 2006).

Experiments:
[1] = Safety and tolerability after intranasal administration to healthy male subjects; format: in vivo, human; conditions: healthy male humans, nasal administration, 5, 10 and 20 mg; blood pressure, heart rate, adverse events
Experimental: (§1) The rate and extent of absorption of melagatran as well as the safety and tolerability were investigated after intranasal administration to six healthy male subjects (between 20 and 40 years of age, body weight between 66 and 86 kg). The trial comprised three study days, separated by wash-out periods of 6-28 days. On study day 1, a single dose of 5 mg of melagatran was administered. The following two study days 10 mg and 20 mg, respectively, were administered.
(§2) Samples for determination of plasma concentration of melagatran (by LC-MS) and for degree of anticoagulation were collected before and up to 10 hours after drug administration. Safety measurements included blood pressure, heart rate and recording of adverse events.
(§3) The safety and tolerability of melagatran when administered nasally were considered satisfactory.

[2] = Bioavailability of intranasal melagatran in rats, with and without absorption enhancers; format: in vivo; conditions: rat, inhaled or intranasal
Experimental: Using standard techniques, melagatran was administered to rats in formulations with and without the enhancers SDS (sodium dodecyl sulfate) or EDTA. The bioavailability was measured by analysis of blood plasma samples using standrad techniques.

[3] = Rate and extent of absorption after intranasal administration to healthy male subjects; format: in vivo, human; conditions: healthy male humans; for bioavailability: male, human, plasma, inhaled or intranasal
Experimental: as §1, §2, §3

- bioavailability ([2]; 20 umol/kg, melagatran alone (no enhancer), blood plasma samples, read-out: bioavailability): ~10%
- bioavailability ([2]; plasma, 20 μmol/kg, formulations with enhancers SDS or EDTA, read-out: bioavailability with enhancers): ≤ 19%
- absorption after intranasal administration (rate) ([3]; intranasal, 5-20 mg): rapid
- bioavailability ([3]; 5 mg, intranasal, single dose 5 mg, six subjects, read-out: median bioavailability): 19%
- bioavailability ([3]; 10 mg, intranasal, single dose 10 mg, six subjects, read-out: median bioavailability): 12%
- bioavailability ([3]; 20 mg, intranasal, 5, 10 and 20 mg, read-out: bioavailability, range over the six subjects at the three doses): 7 to 45%
- bioavailability ([3]; 20 mg, intranasal, single dose 20 mg, six subjects, read-out: median bioavailability): 19%
SMILES: N=C(N)c1ccc(CNC(=O)[C@@H]2CCN2C(=O)[C@H](NCC(=O)O)C2CCCCC2)cc1 [melagatran, HOOC—CH2—(R)-Cgl-Aze-Pab]
- safety and tolerability [1]: satisfactory
- dose dependence of rate or extent of absorption ([3]; intranasal, 5, 10 and 20 mg): no indication of a dose dependent rate or extent of absorption
